Molecular target: human HPK1 (MAP4K1) (Homo sapiens (Human), UniProt Q92918)
Test: HPK1 IC50 Assay (TR-FRET peptide phosphorylation)
Format: biochemical
Method: The enzymatic activity of human HPK1 (MAP4K1) was monitored in a biochemical assay in the presence or absence of compounds and using a synthetic peptide substrate. An increase in phosphorylation of the peptide by HPK1 was indicative of its kinase activity.
Recombinant HPK1 kinase domain produced via baculovirus infection of insect cells was obtained from Proteros (Proteros Biostructures #PR-0322) and was pre-activated in the presence of 2 mM ATP (Sigma-Aldrich, cat #GE27-2056-01) and 2 mM magnesium chloride for 16 hours at 4° C. The protein reaction mixture was then loaded to a desalting column (Thermo Fisher Scientific, Cat #89889) to remove excess ATP. HPK1 was eluted with buffer containing 20 mM Tris (2-Amino-2-(hydroxymethyl)propane-1,3-diol) pH 8.0, 150 mM NaCl, 2 mM dithiothreitol and 5% glycerol, and was frozen at −80° C. for later use. HPK1 dual phosphorylation was confirmed by mass spectrometry.
Ten nanoliters of test compounds dissolved in DMSO at various concentrations were dispensed into a 384-well ProxiPlate (PerkinElmer #6008289). Five microliters of a solution of recombinant HPK1 diluted in HPK1 kinase assay buffer (50 mM BES [N,N-Bis(2-hydroxyethyl)-2-aminoethanesulfonic acid], pH 7.0; 10 mM magnesium chloride; 0.01% Triton X-100; 1 mM dithiothreitol; 0.01% bovine serum albumin; 0.1 mM sodium orthovanadate) was added to the compound-containing plate and was incubated for 15 minutes at 25° C. Five microliters of a mixture of ATP (Sigma-Aldrich #A6559) and peptide substrate STK S1 (Cisbio #61ST1BLC) diluted in HPK1 kinase assay buffer was then added to start the reaction. Final concentrations were 0.15 nM for HPK1, 10 μM for ATP, and 1 μM for the STK S1 peptide substrate. The reaction mixture was incubated at 25° C. for 3 hours and was stopped with the addition of 10 μl of an EDTA (Ethylenediaminetetraacetic acid)-containing detection buffer (Cisbio #62SDBRDF) supplemented with Europium cryptate-labeled anti-phospho-serine/threonine antibodies (Cisbio #62ST1PEJ) and XL665-labeled streptavidin (Cisbio #610SAXLG). The mixture was incubated for 16 hours at room temperature and peptide phosphorylation was measured by time-resolved fluorescence energy transfer (665 nm/620 nm) on an Envision plate reader (PerkinElmer).
Data in Table 1 were normalized based on positive (staurosporine) and negative (DMSO) controls. Least squares curve fittings were performed using a four-parameter variable slope nonlinear regression model. IC50 is defined as the concentration of compound required to inhibit 50% of maximum phosphorylation. IC50 values from multiple experiments were averaged by geometric mean and the standard deviation was calculated.

[1] = recombinant HPK1 kinase domain 0.15 nM, 10 μM ATP, 1 μM STK S1 peptide, geometric mean of multiple experiments
[2] = 0.15 nM HPK1, 10 μM ATP, 1 μM STK S1 peptide substrate, geometric mean

Sequence of human HPK1 (MAP4K1) (Q92918 17-274): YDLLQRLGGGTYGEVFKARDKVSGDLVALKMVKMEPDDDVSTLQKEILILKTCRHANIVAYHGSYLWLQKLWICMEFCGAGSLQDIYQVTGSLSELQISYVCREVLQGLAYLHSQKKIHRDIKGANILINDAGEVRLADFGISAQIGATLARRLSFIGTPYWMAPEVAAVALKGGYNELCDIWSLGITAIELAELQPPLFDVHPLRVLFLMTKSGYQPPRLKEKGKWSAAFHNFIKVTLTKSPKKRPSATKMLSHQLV

IC50 [1] [nM]	IC50 [2] [nM]	Compound
0.2		CC(=O)N1CCC2(CC1)C(=O)N([C@H]1C[C@@H](N3CC4CCC(C3)O4)C1)c1cc(-c3cc4ncn(C(C)C)c4c(Nc4cc(C(=O)NC(C)C)c(C)cc4F)n3)ccc12 [Example 78]
	0.1	Cc1cc(F)c(Nc2nc(-c3ccc4c(c3)N([C@]3(C)C[C@H](N5CCCCC5)C3)C(=O)C4(C)C)cc3ncn(C(C)C)c23)cc1C(=O)NC1(C(F)F)CC1 [Example 295, N-(1-(difluoromethyl)cyclopropyl)-5-((6-(3,3-dimethyl-1-((1s,3s)-1-methyl-3-(piperidin-1-yl)cyclobutyl)-2-oxoindolin-6-yl)-3-isopropyl-3H-imidazo[4,5-c]pyridin-4-yl)amino)-4-fluoro-2-methylbenzamide]
0.1		Cc1ccc(Nc2nc(-c3ccc4c(c3)N([C@H]3C[C@@H](N5CCC[C@@H](O)C5)C3)C(=O)C4(C)C)cc3ncn(C4CC4)c23)cc1C(N)=O [Example 37]
	0.06	CC(C)n1cnc2cc(-c3ccc4c(c3)N([C@H]3C[C@@](C)(N5CCCCC5)C3)C(=O)C43CC3)nc(Nc3cc(C(=O)NCC(F)F)c(Cl)c(F)c3F)c21 [Example 275, 2-chloro-N-(2,2-difluoroethyl)-3,4-difluoro-5-((3-isopropyl-6-(1′-((1s,3s)-3-methyl-3-(piperidin-1-yl)cyclobutyl)-2′-oxospiro[cyclopropane-1,3′-indolin]-6′-yl)-3H-imidazo[4,5-c]pyridin-4-yl)amino)benzamide]
0.2		CC(=O)N1CCC2(CC1)C(=O)N([C@H]1C[C@@H](N3CCCCC3)C1)c1cc(-c3cc4ncn(C(C)C)c4c(Nc4cc(C(=O)NCC(C)C)c(C)cc4F)n3)ccc12 [Example 75]
0.1		CNC(=O)c1cc(Nc2nc(-c3ccc4c(c3)N([C@H]3C[C@@H](N5CCCCC5)C3)C(=O)C43CCOCC3)cc3ncn(C(C)C)c23)ccc1C [Example 123]
0.1		Cc1ccc(Nc2nc(-c3ccc4c(c3)N([C@H]3C[C@@H](N5CCCCC5)C3)C(=O)C4(C)C)cc3ncn(C(C)C)c23)cc1C(=O)NC(C)C [Example 136, 5-((6-(3,3-dimethyl-2-oxo-1-((1s,3s)-3-(piperidin-1-yl)cyclobutyl)indolin-6-yl)-3-isopropyl-3H-imidazo[4,5-c]pyridin-4-yl)amino)-N-isopropyl-2-methylbenzamide]
0.1		CC[C@H](C)n1cnc2cc(-c3ccc4c(c3)N([C@H]3C[C@@H](N5CCC[C@@H](F)C5)C3)C(=O)C4(C)C)nc(Nc3cc(C(=O)NC)c(C)cc3F)c21 [Example 113]
0.1		CCn1cnc2cc(-c3ccc4c(c3)N([C@H]3C[C@@H](N5CCCCC5)C3)C(=O)C43CCN(C(C)=O)CC3)nc(Nc3ccc(C)c(C(=O)NC)c3)c21 [Example 49]
0.05		Cc1ccc(Nc2nc(-c3ccc4c(c3)N([C@H]3C[C@@H](N5CCCCC5)C3)C(=O)C4(C)C)cc3ncn(C(C)C)c23)cc1C(=O)NC(C)C(F)F (stereo partly drawn) [Example 21, N-(1,1-difluoropropan-2-yl)-5-((6-(3,3-dimethyl-2-oxo-1-((1s,3s)-3-(piperidin-1-yl)cyclobutyl)indolin-6-yl)-3-isopropyl-3H-imidazo[4,5-c]pyridin-4-yl)amino)-2-methylbenzamide]
0.1		CNC(=O)c1cc(Nc2nc(-c3ccc4c(c3)N([C@H]3C[C@@H](N5CCC(C)(C)C5)C3)C(=O)C4(C)C)cc3ncn(C(C)C)c23)ccc1C [Example 3]
0.1		CC(C)n1cnc2cc(-c3cnc4c(c3)N([C@H]3C[C@@](C)(N5CCOCC5)C3)C(=O)C4(C)C)nc(Nc3cc(C(=O)NC4(C(F)F)CC4)c(Cl)c(F)c3F)c21 [Example 199, 2-Chloro-N-(1-(difluoromethyl)cyclopropyl)-5-((6-(3,3-dimethyl-1-((1s,3s)-3-methyl-3-morpholinocyclobutyl)-2-oxo-2,3-dihydro-1H-pyrrolo[3,2-b]pyridin-6-yl)-3-isopropyl-3H-imidazo[4,5-c]pyridin-4-yl)amino)-3,4-difluorobenzamide]
0.1		CNC(=O)c1cc(Nc2nc(-c3ccc4c(c3)N([C@H]3C[C@@H](N5CCC[C@@H](F)C5)C3)C(=O)C43CCN(C(C)=O)CC3)cc3ncn(C(C)C)c23)ccc1C [Example 162]
0.08		Cc1c(C(=O)NC2(C(F)F)CC2)cc(Nc2nc(-c3cnc4c(c3)N([C@H]3C[C@@](C)(N5CCCCCC5)C3)C(=O)C4(C)C)cc3ncn(C(C)C)c23)c(F)c1F [Example 229, 5-((6-(1-((1s,3s)-3-(Azepan-1-yl)-3-methylcyclobutyl)-3,3-dimethyl-2-oxo-2,3-dihydro-1H-pyrrolo[3,2-b]pyridin-6-yl)-3-isopropyl-3H-imidazo[4,5-c]pyridin-4-yl)amino)-N-(1-(difluoromethyl)cyclopropyl)-3,4-difluoro-2-methylbenzamide]
0.05		CCNC(=O)c1cc(Nc2nc(-c3cnc4c(c3)N(C3CC(C)(N5CCC6C[C@@H]6C5)C3)C(=O)C4(C)C)cc3ncn(C(C)C)c23)c(F)c(F)c1Cl (stereo partly drawn) [Example 252, 5-((6-(1-((1s,3s)-3-(3-azabicyclo[4.1.0]heptan-3-yl)-3-methylcyclobutyl)-3,3-dimethyl-2-oxo-2,3-dihydro-1H-pyrrolo[3,2-b]pyridin-6-yl)-3-isopropyl-3H-imidazo[4,5-c]pyridin-4-yl)amino)-2-chloro-N-ethyl-3,4-difluorobenzamide]
0.3		CNC(=O)c1cc(Nc2nc(-c3ccc4c(c3)N([C@H]3C[C@@H](N5CCCCC5)C3)C(=O)C43CCN(C(C)=O)CC3)cc3ncn(C4CC4)c23)c(F)cc1C [Example 95]
0.08		Cc1ccc(Nc2nc(-c3ccc4c(c3)N([C@H]3C[C@@H](N5CCCCC5)C3)C(=O)C43CCOCC3)cc3ncn(C(C)C)c23)cc1C(=O)NC1(C(F)F)CC1 [Example 32]
0.07		Cc1ccc(Nc2nc(-c3ccc4c(c3)N([C@H]3C[C@@H](N5CCCCC5)C3)C(=O)C4(C)C)cc3ncn(C(C)C)c23)cc1C(=O)NC1(C(F)F)CC1 [Example 27]
0.3		CCNC(=O)c1cc(Nc2nc(-c3ccc4c(c3)N([C@H]3C[C@@H](N5CCCCC5)C3)C(=O)C43CCN(C(=O)CC)CC3)cc3ncn(CC)c23)c(F)cc1C [Example 56]
0.08		CNC(=O)c1cc(Nc2nc(-c3ccc4c(c3)N([C@H]3C[C@@H](N5CCCCC5)C3)C(=O)C43CCN(C(C)=O)CC3)cc3ncn(C(C)C)c23)c(F)cc1C [Example 92]
0.2		CNC(=O)c1cc(Nc2nc(-c3ccc4c(c3)N([C@H]3C[C@@H](N5CCCCC5)C3)C(=O)C4(C)C)cc3ncn(C(C)C)c23)c(F)cc1F [Example 182]
0.1		CNC(=O)c1cc(Nc2nc(-c3ccc4c(c3)N([C@H]3C[C@@H](N5CCCCC5)C3)C(=O)C43CCN(C(=O)C4(C)COC4)CC3)cc3ncn(C4CC4)c23)ccc1C [Example 85]
0.2		CNC(=O)c1cc(Oc2nc(-c3ccc4c(c3)N([C@H]3C[C@@H](N5CCC(C)(C)C5)C3)C(=O)C43CCN(C(C)=O)CC3)cc3ncn(C(C)C)c23)ccc1C [Example 181]

Compound	IC50 [1] [nM]	IC50 [2] [nM]
Cc1ccc(Nc2nc(-c3ccc4c(c3)N([C@H]3C[C@@H](N5CCCCC5)C3)C(=O)C43CCN(C4COC4)CC3)cc3ncn(C(C)C)c23)cc1C(=O)NC(C)C [Example 73]	0.1	
CNC(=O)c1cc(Nc2nc(-c3ccc4c(c3)N(C3CC(N5CCC[C@H](C(F)F)C5)C3)C(=O)C4(C)C)cc3ncn(C(C)C)c23)ccc1C (stereo partly drawn) [Example 105A, 5-((6-(1-((1s,3s)-3-(3-(difluoromethyl)piperidin-1-yl)cyclobutyl)-3,3-dimethyl-2-oxoindolin-6-yl)-3-isopropyl-3H-imidazo[4,5-c]pyridin-4-yl)amino)-N,2-dimethylbenzamide]	0.2	
Cc1c(C(=O)NC2(C(F)F)CC2)cc(Nc2nc(-c3cnc4c(c3)N(C3CC(C)(N5CCC6C[C@@H]6C5)C3)C(=O)C4(C)C)cc3ncn(C(C)C)c23)c(F)c1F (stereo partly drawn) [Example 232, 5-((6-(1-((1s,3s)-3-(3-azabicyclo[4.1.0]heptan-3-yl)-3-methylcyclobutyl)-3,3-dimethyl-2-oxo-2,3-dihydro-1H-pyrrolo[3,2-b]pyridin-6-yl)-3-isopropyl-3H-imidazo[4,5-c]pyridin-4-yl)amino)-N-(1-(difluoromethyl)cyclopropyl)-3,4-difluoro-2-methylbenzamide]	0.09	
CNC(=O)c1cc(Nc2nc(-c3ccc4c(c3)N([C@H]3C[C@@H](N5C6CCC5COC6)C3)C(=O)C4(C)C)cc3ncn(C(C)C)c23)c(F)cc1C [Example 8]	0.08	
